Laboratory results taken from patent US12473304B2, “Heterocyclic PAD4 inhibitors” (BRISTOL-MYERS SQUIBB COMPANY, priority 2020, dated 2025).

What follows are molecules tested against human PAD4 (hPAD4) (Homo sapiens (Human), UniProt Q9UM07) (assay: RFMS Human PAD4 Functional Assay 1). Details: RFMS assay 1; 5 nM hPAD4, 250 μM BAEE substrate, 50 μM calcium, 37° C.
Format: biochemical
In short: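 Recombinant hPAD4 (5 nM) was preincubated with compound (top 50 μM, 0.5% DMSO) for 30 min at 37 °C, then reacted with 250 μM BAEE for 90 min at 37 °C in pH 7.5 HEPES buffer with 50 μM calcium and 5 μM TPEN. Product was derivatized with phenyl glyoxal and quantified by RapidFire MS.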

Sequence of human PAD4 (hPAD4) (Q9UM07 whole entry): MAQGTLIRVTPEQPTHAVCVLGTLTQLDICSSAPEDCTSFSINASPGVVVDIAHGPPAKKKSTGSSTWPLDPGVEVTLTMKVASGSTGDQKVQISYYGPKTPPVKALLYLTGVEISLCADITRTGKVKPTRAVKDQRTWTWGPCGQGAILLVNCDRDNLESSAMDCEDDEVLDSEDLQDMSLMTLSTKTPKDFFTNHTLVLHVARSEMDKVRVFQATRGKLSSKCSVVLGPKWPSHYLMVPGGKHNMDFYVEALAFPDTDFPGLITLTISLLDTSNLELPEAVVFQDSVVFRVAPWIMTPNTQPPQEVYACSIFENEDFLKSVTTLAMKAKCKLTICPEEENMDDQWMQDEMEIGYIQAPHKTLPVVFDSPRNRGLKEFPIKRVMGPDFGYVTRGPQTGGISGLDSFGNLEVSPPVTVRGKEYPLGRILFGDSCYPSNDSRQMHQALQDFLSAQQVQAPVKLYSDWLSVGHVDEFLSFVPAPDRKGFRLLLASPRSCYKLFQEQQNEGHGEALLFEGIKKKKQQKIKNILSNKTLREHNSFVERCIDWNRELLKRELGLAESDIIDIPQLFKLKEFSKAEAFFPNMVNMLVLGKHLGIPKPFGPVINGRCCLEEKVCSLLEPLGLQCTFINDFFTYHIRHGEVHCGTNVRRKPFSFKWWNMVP

Structure (SMILES) | IC50 [nM]
Cc1c(-c2cc3cccc(OC[C@@H]4CCC(=O)N4)c3n2CC2CC2)nn2cc(C(=O)N3CCC[C@@H](N)C3)ccc12 [Example 584, (S)-5-(((2-(6-((R)-3-Aminopiperidine-1-carbonyl)-3-methylpyrazolo[1,5-a]pyridin-2-yl)-1-(cyclopropylmethyl)-1H-indol-7-yl)oxy)methyl)pyrrolidin-2-one] | 50
Cc1c(-c2cc3cccc(OC[C@@H]4CCC(=O)N4)c3n2CC2CC2)nn2cc(C(=O)N3C[C@H](N)C[C@@H](F)C3)ccc12 [Example 585, (S)-5-(((2-(6-((3R,5R)-3-Amino-5-fluoropiperidine-1-carbonyl)-3-methylpyrazolo[1,5-a]pyridin-2-yl)-1-(cyclopropylmethyl)-1H-indol-7-yl)oxy)methyl)pyrrolidin-2-one] | 70
Cc1c(-c2cc3cccc(OC[C@H]4CCC(=O)N4)c3n2CC2CC2)nn2cc(C(=O)N3C[C@H](N)C[C@@H](F)C3)ccc12 [Example 587, (R)-5-(((2-(6-((3R,5R)-3-Amino-5-fluoropiperidine-1-carbonyl)-3-methylpyrazolo[1,5-a]pyridin-2-yl)-1-(cyclopropylmethyl)-1H-indol-7-yl)oxy)methyl)pyrrolidin-2-one] | 1120
COc1cc(C(=O)N2CCC[C@@H](N)C2)cn2nc(-c3cc4ccnc(OCCn5cncn5)c4n3CC3CC3)c(C)c12 [Example 593, (R)-(2-(7-(2-(1H-1,2,4-Triazol-1-yl)ethoxy)-1-(cyclopropylmethyl)-1H-pyrrolo[2,3-c]pyridin-2-yl)-4-methoxy-3-methylpyrazolo[1,5-a]pyridin-6-yl)(3-aminopiperidin-1-yl)methanone] | 110
COc1cc(C(=O)N2C[C@H](N)C[C@@H](F)C2)cn2nc(-c3cc4ccnc(OCCn5ccnc5C)c4n3CC3CC3)c(C)c12 [Example 594, ((3R,5R)-3-Amino-5-fluoropiperidin-1-yl)(2-(1-(cyclopropylmethyl)-7-(2-(2-methyl-1H-imidazol-1-yl)ethoxy)-1H-pyrrolo[2,3-c]pyridin-2-yl)-4-methoxy-3-methylpyrazolo[1,5-a]pyridin-6-yl)methanone] | 390
COc1cc(C(=O)N2CCC[C@@H](N)C2)cn2nc(-c3cc4ccnc(OCCn5ccnc5C)c4n3CC3CC3)c(C)c12 [Example 595, (R)-(3-Aminopiperidin-1-yl)(2-(1-(cyclopropylmethyl)-7-(2-(2-methyl-1H-imidazol-1-yl)ethoxy)-1H-pyrrolo[2,3-c]pyridin-2-yl)-4-methoxy-3-methylpyrazolo[1,5-a]pyridin-6-yl)methanone] | 1280
COc1cc(C(=O)N2CCC[C@@H](N)C2)cn2nc(-c3cc4ccnc(OCC5COC5)c4n3CC3CC3)c(C)c12 [Example 596, (R)-(3-Aminopiperidin-1-yl)(2-(1-(cyclopropylmethyl)-7-(oxetan-3-ylmethoxy)-1H-pyrrolo[2,3-c]pyridin-2-yl)-4-methoxy-3-methylpyrazolo[1,5-a]pyridin-6-yl)methanone] | 7390
COc1cc(C(=O)N2C[C@H](N)C[C@@H](F)C2)cn2nc(-c3cc4ccnc(OCCn5ccnc5)c4n3CC3CC3)c(C)c12 [Example 597, (2-(7-(2-(1H-Imidazol-1-yl)ethoxy)-1-(cyclopropylmethyl)-1H-pyrrolo[2,3-c]pyridin-2-yl)-4-methoxy-3-methylpyrazolo[1,5-a]pyridin-6-yl)((3R,5R)-3-amino-5-fluoropiperidin-1-yl)methanone] | 10
COc1cc(C(=O)N2C[C@H](N)C[C@@H](F)C2)cn2nc(-c3cc4ccnc(OCCn5cnnc5)c4n3CC3CC3)c(C)c12 [Example 600, (2-(7-(2-(4H-1,2,4-Triazol-4-yl)ethoxy)-1-(cyclopropylmethyl)-1H-pyrrolo[2,3-c]pyridin-2-yl)-4-methoxy-3-methylpyrazolo[1,5-a]pyridin-6-yl)((3R,5R)-3-amino-5-fluoropiperidin-1-yl)methanone] | 30
COc1cc(C(=O)N2CC3CCC2[C@@H]3N)cn2nc(-c3cc4ccnc(OC[C@H]5CCC(=O)N5)c4n3CC3CC3)c(C)c12 (stereo partly drawn) [Example 604, (5R)-5-(((2-(6-((7R)-7-Amino-2-azabicyclo[2.2.1]heptane-2-carbonyl)-4-methoxy-3-methylpyrazolo[1,5-a]pyridin-2-yl)-1-(cyclopropylmethyl)-1H-pyrrolo[2,3-c]pyridin-7-yl)oxy)methyl)pyrrolidin-2-one] | 30
Cc1c(-c2cc3ccnc(OCCn4ccnc4C)c3n2CC2CC2)nn2cc(C(=O)N3C[C@H](N)C[C@@H](F)C3)ccc12 [Example 611, ((3R,5R)-3-Amino-5-fluoropiperidin-1-yl)(2-(1-(cyclopropylmethyl)-7-(2-(2-methyl-1H-imidazol-1-yl)ethoxy)-1H-pyrrolo[2,3-c]pyridin-2-yl)-3-methylpyrazolo[1,5-a]pyridin-6-yl)methanone] | 1560
Cc1c(-c2cc3ccnc(OCCn4ccnc4C)c3n2CC2CC2)nn2cc(C(=O)N3CCC[C@@H](N)C3)ccc12 [Example 612, (R)-(3-Aminopiperidin-1-yl)(2-(1-(cyclopropylmethyl)-7-(2-(2-methyl-1H-imidazol-1-yl)ethoxy)-1H-pyrrolo[2,3-c]pyridin-2-yl)-3-methylpyrazolo[1,5-a]pyridin-6-yl)methanone] | 2960
Cc1c(-c2cc3ccnc(OCCn4cnnc4)c3n2CC2CC2)nn2cc(C(=O)N3C[C@H](N)C[C@@H](F)C3)ccc12 [Example 613, (2-(7-(2-(4H-1,2,4-Triazol-4-yl)ethoxy)-1-(cyclopropylmethyl)-1H-pyrrolo[2,3-c]pyridin-2-yl)-3-methylpyrazolo[1,5-a]pyridin-6-yl)((3R,5R)-3-amino-5-fluoropiperidin-1-yl)methanone] | 250
Cc1c(-c2cc3ccnc(OCCn4ccnc4)c3n2CC2CC2)nn2cc(C(=O)N3C[C@H](N)C[C@@H](F)C3)ccc12 [Example 616, (2-(7-(2-(1H-Imidazol-1-yl)ethoxy)-1-(cyclopropylmethyl)-1H-pyrrolo[2,3-c]pyridin-2-yl)-3-methylpyrazolo[1,5-a]pyridin-6-yl)((3R,5R)-3-amino-5-fluoropiperidin-1-yl)methanone] | 20

Continued by falling IC50, values first:

IC50 [nM] | Structure (SMILES)
1610 | Cc1c(-c2cc3cccc(OCCn4cc(N)cn4)c3n2CC2CC2)nn2cc(C(=O)N3C[C@H](N)C[C@@H](F)C3)ccc12 [Example 583, (2-(7-(2-(4-Amino-1H-pyrazol-1-yl)ethoxy)-1-(cyclopropylmethyl)-1H-indol-2-yl)-3-methylpyrazolo[1,5-a]pyridin-6-yl)((3R,5R)-3-amino-5-fluoropiperidin-1-yl)methanone]
430 | Cc1c(-c2cc3ccnc(OCCn4cncn4)c3n2CC2CC2)nn2cc(C(=O)N3C[C@H](N)C[C@@H](F)C3)ccc12 [Example 610, (2-(7-(2-(1H-1,2,4-Triazol-1-yl)ethoxy)-1-(cyclopropylmethyl)-1H-pyrrolo[2,3-c]pyridin-2-yl)-3-methylpyrazolo[1,5-a]pyridin-6-yl)((3R,5R)-3-amino-5-fluoropiperidin-1-yl)methanone]
300 | Cc1c(-c2cc3cccc(OCCn4cc(N)cn4)c3n2CC2CC2)nn2cc(C(=O)N3CCC[C@@H](N)C3)ccc12 [Example 582, (R)-(2-(7-(2-(4-Amino-1H-pyrazol-1-yl)ethoxy)-1-(cyclopropylmethyl)-1H-indol-2-yl)-3-methylpyrazolo[1,5-a]pyridin-6-yl)(3-aminopiperidin-1-yl)methanone]
150 | Cc1c(-c2cc3cccc(OC[C@H]4CCC(=O)N4)c3n2CC2CC2)nn2cc(C(=O)N3CCC[C@@H](N)C3)ccc12 [Example 586, (R)-5-(((2-(6-((R)-3-Aminopiperidine-1-carbonyl)-3-methylpyrazolo[1,5-a]pyridin-2-yl)-1-(cyclopropylmethyl)-1H-indol-7-yl)oxy)methyl)pyrrolidin-2-one]
40 | Cc1c(-c2cc3ccnc(OCCn4cnnc4)c3n2CC2CC2)nn2cc(C(=O)N3CCC[C@@H](N)C3)ccc12 [Example 609, (R)-(2-(7-(2-(4H-1,2,4-Triazol-4-yl)ethoxy)-1-(cyclopropylmethyl)-1H-pyrrolo[2,3-c]pyridin-2-yl)-3-methylpyrazolo[1,5-a]pyridin-6-yl)(3-aminopiperidin-1-yl)methanone]
30 | Cc1c(-c2cc3cccc(OCCn4cncn4)c3n2CC2CC2)nn2cc(C(=O)N3C[C@H](N)C[C@@H](F)C3)ccc12 [Example 581, (2-(7-(2-(1H-1,2,4-Triazol-1-yl)ethoxy)-1-(cyclopropylmethyl)-1H-indol-2-yl)-3-methylpyrazolo[1,5-a]pyridin-6-yl)((3R, 5R)-3-amino-5-fluoropiperidin-1-yl)methanone]
30 | COc1cc(C(=O)N2C[C@H](N)C[C@@H](F)C2)cn2nc(-c3cc4ccnc(OCCn5cncn5)c4n3CC3CC3)c(C)c12 [Example 592, (2-(7-(2-(1H-1,2,4-Triazol-1-yl)ethoxy)-1-(cyclopropylmethyl)-1H-pyrrolo[2,3-c]pyridin-2-yl)-4-methoxy-3-methylpyrazolo[1,5-a]pyridin-6-yl)((3R,5R)-3-amino-5-fluoropiperidin-1-yl)methanone]
20 | COc1cc(C(=O)N2CCC[C@@H](N)C2)cn2nc(-c3cc4ccnc(OCCn5ccnc5)c4n3CC3CC3)c(C)c12 [Example 598, (R)-(2-(7-(2-(1H-Imidazol-1-yl)ethoxy)-1-(cyclopropylmethyl)-1H-pyrrolo[2,3-c]pyridin-2-yl)-4-methoxy-3-methylpyrazolo[1,5-a]pyridin-6-yl)(3-aminopiperidin-1-yl)methanone]
20 | COc1cc(C(=O)N2CCC[C@@H](N)C2)cn2nc(-c3cc4ccnc(OCCn5cnnc5)c4n3CC3CC3)c(C)c12 [Example 599, (R)-(2-(7-(2-(4H-1,2,4-Triazol-4-yl)ethoxy)-1-(cyclopropylmethyl)-1H-pyrrolo[2,3-c]pyridin-2-yl)-4-methoxy-3-methylpyrazolo[1,5-a]pyridin-6-yl)(3-aminopiperidin-1-yl)methanone]
